Key:
Format in all cases: biochemical
MAO-A = biological target: T1, MAO-A (Homo sapiens, UniProt P21397); experiment: MAO-Glo luminescent enzyme assay (Promega V1401), selectivity test
T1 construct: gene MAOA
T1 sequence (P21397 1-527): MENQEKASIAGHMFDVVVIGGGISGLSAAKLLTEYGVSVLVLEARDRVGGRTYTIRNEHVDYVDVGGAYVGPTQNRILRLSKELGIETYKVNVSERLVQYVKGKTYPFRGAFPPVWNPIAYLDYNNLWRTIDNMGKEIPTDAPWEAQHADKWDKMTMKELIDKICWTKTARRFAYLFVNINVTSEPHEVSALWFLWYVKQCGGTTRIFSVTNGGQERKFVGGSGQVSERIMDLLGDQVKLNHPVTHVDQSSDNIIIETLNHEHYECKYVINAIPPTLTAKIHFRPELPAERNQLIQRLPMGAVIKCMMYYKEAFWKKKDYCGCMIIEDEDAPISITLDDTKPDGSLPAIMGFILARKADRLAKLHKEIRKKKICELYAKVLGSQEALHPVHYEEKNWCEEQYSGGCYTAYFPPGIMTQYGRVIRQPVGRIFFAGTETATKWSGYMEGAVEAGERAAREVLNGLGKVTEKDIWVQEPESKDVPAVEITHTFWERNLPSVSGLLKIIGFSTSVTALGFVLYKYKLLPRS
From the text: MAO-Glo luminescent enzyme assay (Promega V1401), selectivity test on MAO-A | JL1037 enzymatic inhibitory activity against LSD1, MAO-A and MAO-B.

MAO-B = biological target: T2, MAO-B (Homo sapiens, UniProt P27338); experiment: as above
T2 construct: gene MAOB
T2 sequence (P27338 2-520): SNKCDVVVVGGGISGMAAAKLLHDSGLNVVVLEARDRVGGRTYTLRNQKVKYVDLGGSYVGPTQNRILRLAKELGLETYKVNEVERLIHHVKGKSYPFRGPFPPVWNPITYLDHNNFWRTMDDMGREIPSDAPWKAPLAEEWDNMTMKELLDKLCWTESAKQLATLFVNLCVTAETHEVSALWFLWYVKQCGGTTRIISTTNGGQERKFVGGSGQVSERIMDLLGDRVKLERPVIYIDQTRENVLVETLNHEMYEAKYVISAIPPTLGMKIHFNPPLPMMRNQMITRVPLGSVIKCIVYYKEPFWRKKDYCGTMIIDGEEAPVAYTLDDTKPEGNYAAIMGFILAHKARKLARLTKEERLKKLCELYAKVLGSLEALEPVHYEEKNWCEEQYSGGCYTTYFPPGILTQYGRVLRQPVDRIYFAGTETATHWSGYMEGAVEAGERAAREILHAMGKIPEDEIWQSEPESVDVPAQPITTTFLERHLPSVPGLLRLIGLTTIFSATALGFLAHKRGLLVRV
From the text: MAO-Glo luminescent enzyme assay (Promega V1401), selectivity test on MAO-B | JL1037 enzymatic inhibitory activity against LSD1, MAO-A and MAO-B.

[1] = biological target: T3, Lysine-specific demethylase 1 (LSD1) (Homo sapiens, UniProt O60341); experiment: LSD1 Fluorimetric Drug Discovery kit (Enzo BML-AK544), HRP-coupled, H3K4me2 substrate
T3 construct: gene KDM1A

## JL1037
MAO-A
  IC50: 1920 nM
MAO-B
  IC50: 1770 nM
[1]
  IC50: 110 nM

— paper PMC5458257, “Identification of JL1037 as a novel, specific, reversible lysine-specific demethylase 1 inhibitor that induce apoptosis and autophagy of AML cells” (Oncotarget, 2017)
